Laboratory results as given in patent US9120779B2, “Inhibitors of HCV NS5A” (PRESIDIO PHARMACEUTICALS, INC., priority 2008, dated 2015).
Like-named read-outs stand apart in the source and are kept apart here.

Test system: HCV genotype 1b replicon in Huh 7 cells
Assay: HCV replicon assay (luciferase readout, 1b_Huh-Luc/Neo-ET cell line)
Type: cell-based
Settings: Hepatitis C virus, Huh-7, 72 h
In short: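 Huh 7 cells carrying a bicistronic genotype 1b luciferase replicon treated with compound in triplicate for 72 h. Replicon level read as luciferase activity (Bright-Glo), expressed as % of control; EC50 from a sigmoidal Hill-slope fit, repeated several times.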

[1] = read-out: Inhibition of HCV genotype 1b, Table 5, 72 h incubation
[2] = read-out: Inhibition of HCV genotype 1b, Table 1, 72 h incubation

Compound | EC50 [1] | further results
COC(=O)N[C@H](C(=O)N1CCC[C@H]1c1ncc(C23CCC(c4ccc(-c5cnc([C@@H]6CCCN6C(=O)[C@@H](NC(=O)N6CCCCC6)C(C)C)[nH]5)cc4)(CC2)CC3)[nH]1)C(C)C [compound 648] | 10 to 999 nM | 
COC(=O)N[C@H](C(=O)N1CCC[C@H]1c1ncc(-c2ccc(C34CCC(c5cnc([C@@H]6CCCN6C(=O)[C@@H](NC(=O)OC)C6CCCC6)[nH]5)(CC3)CC4)cc2)[nH]1)C1CCCC1 [compound 2094] | < 1 nM | 
COC(=O)N[C@@H](C(=O)N1CCC[C@H]1c1ncc(-c2ccc(C3CCC(c4cnc([C@@H]5CCCN5C(=O)[C@@H](c5ccccc5)N(C)C)[nH]4)CC3)cc2)[nH]1)c1ccccc1 (some centres unmarked) [compound 376] |  | EC50 [2]: < 1 nM
COC(=O)N[C@@H](C(=O)N1CCC[C@H]1c1ncc(-c2cc(F)c(N3CCC(c4cnc([C@@H]5CCCN5C(=O)[C@@H](c5ccccc5)N(C)C)[nH]4)CC3)c(F)c2)[nH]1)c1ccccc1 [compound 458] |  | EC50 (read-out: Inhibition of HCV genotype 1b, Table 3, 72 h incubation): < 1 nM
COC(=O)N[C@@H](C)C(=O)N1CCC[C@H]1c1ncc(C23CCC(c4ccc(-c5cnc([C@@H]6CCCN6C(=O)[C@@H](NC(=O)OC)C(C)C)[nH]5)cc4)(CC2)CC3)[nH]1 [compound 2061] | < 1 nM | 
COC(=O)N[C@H](C(=O)N1CCC[C@H]1c1ncc(-c2ccc(C34CCC(c5cnc([C@@H]6CCCN6C(=O)[C@@H](c6ccccc6)N(C)C)[nH]5)(CC3)CC4)cc2)[nH]1)C(C)C [compound 2051] | < 1 nM | 
COC(=O)N[C@@H](C(=O)N1CCC[C@H]1c1ncc(C2CCC(c3ccc(-c4cnc([C@@H]5CCCN5C(=O)[C@@H](c5ccccc5)N5CCOCC5)[nH]4)cc3)CC2)[nH]1)c1ccccc1 (some centres unmarked) [compound 378] |  | EC50 [2]: < 1 nM
COC(=O)N[C@H](C(=O)N1CCC[C@H]1c1ncc(-c2ccc(C34CCC(c5cnc([C@@H]6CCCN6C(=O)[C@H](NC(=O)OC6CCOCC6)C(C)C)[nH]5)(CC3)CC4)cc2)[nH]1)C(C)C [compound 2084] | < 1 nM | 
COC(=O)N[C@H](C(=O)N1CCC[C@H]1c1ncc(C23CCC(c4ccc(-c5cnc([C@@H]6CCCN6C(=O)[C@H](C(C)C)N(C)C)[nH]5)cc4)(CC2)CC3)[nH]1)C(C)C [compound 2077] | < 1 nM | 
COC(=O)N[C@H](C(=O)N[C@@H](C)c1ncc(C23CCC(c4ccc(-c5cnc([C@@H]6CCCN6C(=O)[C@@H](NC(=O)OC)C(C)C)[nH]5)cc4)(CC2)CC3)[nH]1)C(C)C [compound 2097] | < 1 nM | 
CC(C)[C@@H](NC(=O)N1CCOCC1)C(=O)N1CCC[C@H]1C(=O)N[C@H]1CC[C@H](c2ccc(-c3cnc([C@@H]4CCCN4C(=O)[C@H](NC(=O)N4CCOCC4)C(C)C)[nH]3)cc2)CC1 [compound 360] |  | EC50 [2]: 10 to 999 nM
COC(=O)N[C@H](C(=O)N[C@@H](C)c1nc2ccc(-c3ccc(-c4ccc5nc([C@@H]6CCCN6C(=O)[C@@H](C(C)C)N(C)C)[nH]c5c4)cc3)cc2[nH]1)C(C)C [compound 938] |  | EC50 (read-out: Inhibition of HCV genotype 1b, Table 4, 72 h incubation): < 1 nM
CC(C)[C@H](NC(=O)N1CCC(O)CC1)C(=O)N1CCC[C@H]1c1ncc(-c2ccc(C34CCC(c5cnc([C@@H]6CCCN6C(=O)[C@@H](NC(=O)N6CCC(O)CC6)C(C)C)[nH]5)(CC3)CC4)cc2)[nH]1 [compound 630] | > 1000 nM | 
COC(=O)N[C@H](C(=O)N1CCC[C@H]1c1ncc(-c2ccc(C34CCC(c5cnc([C@@H]6CCCN6C(=O)[C@H](NC(=O)N6CC[C@@H](O)C6)c6ccccc6)[nH]5)(CC3)CC4)cc2)[nH]1)C(C)C [compound 2088] | < 1 nM | 
COC(=O)N[C@@H](C)C(=O)N1CCC[C@H]1c1ncc(-c2ccc(C34CCC(c5cnc([C@@H]6CCCN6C(=O)[C@H](C)NC(=O)OC)[nH]5)(CC3)CC4)cc2)[nH]1 [compound 916] | < 1 nM | 
COC(=O)N[C@H](C(=O)N1CCC[C@H]1c1ncc(-c2ccc([C@H]3CC[C@H](c4cnc([C@@H]5CCCN5C(=O)[C@@H](NC(=O)OC)C(C)C)[nH]4)CC3)cc2)[nH]1)C(C)C [compound 381] |  | EC50 [2]: < 1 nM
COC(=O)N[C@H](C(=O)N1CCC[C@H]1c1ncc(-c2ccc(C34CCC(c5cnc([C@@H]6CCCN6C(=O)[C@H](NC6CCOCC6)C(C)C)[nH]5)(CC3)CC4)cc2)[nH]1)C(C)C [compound 2055] | < 1 nM | 
